Data set [1] in a line: Sensitivity to light. It is filed as physicochemical. As to conditions: effect of light.
A short description of data set [2]: Hot plate test (analgetic activity). It is filed as in vivo. As to conditions: sc.
Data set [3] in a line: Tail Flick test (analgetic activity). It is filed as in vivo. As to conditions: read-out: Tail Flick ED50.

These results are taken from patent publication US5232926A, “Morphinane-skeletoned hydrazone derivatives” (priority 1992, dated 1993).

Regarding `COc1ccc2c3c1O[C@H]1C(=NNc4ccccc4)C=C[C@@]4(O)[C@@H](C2)N(C)CC[C@]314` [14-OH-codeinone phenylhydrazone], the sensitivity to light entry in data set [1] is listed as “sensitive to light, it turns to yellow due to the effect of light”.

On to `COc1ccc2c3c1O[C@H]1C(=NNc4ccccc4)CC[C@H]4[C@@H](C2)N(C)CC[C@]314` [Dihydrocodeinone phenylhydrazone], for which the values for the ED50 in data set [2] and in data set [3] (sc.) were 2.4 mg/kg and 2.3 mg/kg, respectively.

In the case of `COc1ccc2c3c1O[C@H]1C(=NNC(N)=O)CC[C@H]4[C@@H](C2)N(C)CC[C@]314` [Dihydrocodeinone semicarbazone, Dihydrocodeinonesemicarbazone], the ED50 was 0.38 mg/kg in data set [2] and 0.35 mg/kg in data set [3] (sc.).

Consider `COc1ccc2c3c1O[C@H]1C(=NNC(N)=S)CC[C@H]4[C@@H](C2)N(C)CC[C@]314` [Dihydrocodeinone thiosemicarbazone], for which the ED50 in data set [2] came to 1.7 mg/kg; in data set [3] (sc.), 0.6 mg/kg.

For `CN1CC[C@]23c4c5ccc(O)c4O[C@H]2C(=NNc2ccc([N+](=O)[O-])cc2[N+](=O)[O-])CC[C@H]3[C@H]1C5` [Dihydromorphinone dinitrophenylhydrazone, Dihydromorphinone-2,4-dinitrophenyl hydrazone], the ED50 was found to be 0.27 mg/kg in data set [2] and 0.18 mg/kg in data set [3] (sc.).

With `CN1CC[C@]23c4c5ccc(O)c4O[C@H]2C(=NNC(N)=O)CC[C@H]3[C@H]1C5` [Dihydromorphinone semicarbazone], the ED50 in data set [2] was determined as 0.085 mg/kg; in data set [3] (sc.), 0.13 mg/kg.

On to `CN1CC[C@]23c4c5ccc(O)c4O[C@H]2[C@@H](O)C=C[C@H]3[C@H]1C5` [Morphine, reference compound], for which the “Hot plate test ED50” value in data set [2] was found to be 3.6 mg/kg. In addition, the ED50 in data set [3] (sc) came out at 5 mg/kg.

As to `COc1ccc2c3c1O[C@H]1C(=NNc4ccccc4)CC[C@@]4(O)[C@@H](C2)N(C)CC[C@]314` [Oxycodone phenylhydrazone, 14-OH-dihydrocodeinone phenylhydrazone], the results for the ED50 in data set [2] and in data set [3] (sc.) were 0.8 mg/kg and 1.2 mg/kg, respectively.

With `COc1ccc2c3c1O[C@H]1C(=NNC(N)=O)CC[C@@]4(O)[C@@H](C2)N(C)CC[C@]314` [Oxycodone semicarbazone, 14-OH-dihydrocodeinonesemicarbazone], the ED50 in data set [2] is 0.58 mg/kg; in data set [3] (sc.), 0.45 mg/kg.

In the case of `CN1CC[C@]23c4c5ccc(O)c4O[C@H]2C(=NNc2ccc([N+](=O)[O-])cc2[N+](=O)[O-])CC[C@@]3(O)[C@H]1C5` [Oxymorphone dinitrophenylhydrazone, 14-OH-dihydromorphinone-2,4-dinitrophenyl hydrazone], the ED50 was determined as 0.37 mg/kg in data set [2] and 0.27 mg/kg in data set [3] (sc.).

Take `CN1CC[C@]23c4c5ccc(O)c4O[C@H]2C(=NNC(N)=O)CC[C@@]3(O)[C@H]1C5` [Oxymorphone semicarbazone, 14-OH-dihydromorphinone semicarbazone]: the median effective dose (ED50) in data set [2] and in data set [3] (sc.) was 0.9 mg/kg in each case.
